The record followed here is US11753407B2, “Compounds for treating spinal muscular atrophy” (PTC Therapeutics, Inc., priority 2012, dated 2023).

Broadly, the melting point is the temperature of the solid-liquid transition.

The structures appear in SMILES notation.

The subject of series [1] is SMN2 minigene mRNA (SMN2-A minigene) in HEK293H cells. Briefly: SMN2 minigene mRNA splicing RT-qPCR assay in cultured cells. The class given is cell-based, human. Conditions: Homo sapiens, HEK293-H; concentration increasing full length SMN2 mRNA 1.5-fold relative to vehicle-treated cells; HEK293H cells with SMN2-A minigene, 24 hours, 7-point concentration data; read-out: EC1.5x for production of full length SMN2 mRNA. Summed up:
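HEK293H cells stably carrying SMN2-A minigene treated with compounds (7-point, 3.16-fold dilutions, duplicates) for 24 h at 37 °C. Full-length exon 7-containing minigene mRNA measured by multiplex RT-qPCR with GAPDH, normalized and expressed relative to vehicle (modified ΔΔCt); EC1.5× is concentration giving 1.5-fold increase.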
(Real-time PCR tracks product formation cycle by cycle.)

For series [2], the system named is Smn protein in SMA patient fibroblast cells (GM03813). Briefly: Smn protein assay in cultured cells (SMN HTRF). The class given is cell-based, human. Conditions: SMA patient fibroblast cells, 48 hours; for EC1.5x for Smn protein expression: 7-point concentration curve, SMN HTRF, concentration producing 1.5 times Smn protein vs DMSO vehicle control; for maximum fold (Fold) increase of Smn protein: 7-point concentration data, fold relative to vehicle control. The method in brief: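 SMA patient fibroblasts (5,000/well, DMEM-10% FBS) treated 48 h at 37° C with 7-point, 3.16-fold compound series in triplicate; lysates read by SMN HTRF (665/620 nm ratio). Fold Smn increase over DMSO vehicle derived; EC1.5× is concentration giving 1.5-fold Smn, with maximum fold also reported.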

Take `CCN1CCC(c2cn3c(=O)cc(-c4cc(C)c5nc(C)cn5c4)nc3cn2)CC1` [Compound 593, 2-(2,8-dimethylimidazo[1,2-a]pyridin-6-yl)-7-(1-ethylpiperidin-4-yl)-4H-pyrazino[1,2-a]pyrimidin-4-one]: the melting point was 242 to 244 °C. In addition, the EC (1.5-fold increase) in series [1] is below 0.1 µM. For the same compound, in series [2], the “EC1.5x for Smn protein expression” value was “**** (an EC1.5x≤0.3 μM is indicated by four stars (****))” and the “maximum fold (Fold) increase of Smn protein” value (“maximum fold (Fold) increase” below) is “***** (a fold increase >1.65 is indicated by five stars (*****))”.
For the compound `Cc1cn2cc(-c3cc(=O)n4cc(C5CCN(CCO)CC5)ncc4n3)cc(C)c2n1` [Compound 594, 2-(2,8-dimethylimidazo[1,2-a]pyridin-6-yl)-7-[1-(2-hydroxyethyl)piperidin-4-yl]-4H-pyrazino[1,2-a]pyrimidin-4-one], the melting point lay in the range of 242 to 244 °C. Also, the EC (1.5-fold increase) in series [1] lay within 0.1 to 0.3 µM. Also, in series [2], the “EC1.5x for Smn protein expression” value was “*** (an EC1.5× between >0.3 μM and ≤1 μM is indicated by three stars (***))”; the “maximum fold (Fold) increase” value was “**** (a fold increase between >1.5 and ≤1.65 is indicated by four stars (****))”.
`Cc1cn2cc(-c3cc(=O)n4cc(C5CCN(C(C)C)CC5)ncc4n3)cc(Cl)c2n1` [Compound 595, 2-(8-chloro-2-methylimidazo[1,2-a]pyridin-6-yl)-7-[1-(propan-2-yl)piperidin-4-yl]-4H-pyrazino[1,2-a]pyrimidin-4-one]: the melting point was in the range of 243 to 245 °C. Also, the EC (1.5-fold increase) in series [1] is below 0.1 µM. Also, in series [2], the “EC1.5x for Smn protein expression” value was “**** (an EC1.5x≤0.3 μM is indicated by four stars (****))”; the “maximum fold (Fold) increase” value is “**** (a fold increase between >1.5 and ≤1.65 is indicated by four stars (****))”.
Compound `CCNC1CCN(c2cc(C)c3nc(-c4cc5c(C)nc(C)cn5n4)cc(=O)n3c2)CC1` [Compound 596, 2-(4,6-dimethylpyrazolo[1,5-a]pyrazin-2-yl)-7-[4-(ethylamino)piperidin-1-yl]-9-methyl-4H-pyrido[1,2-a]pyrimidin-4-one] registered a melting point of 228 to 236 °C. In addition, the EC (1.5-fold increase) in series [1] was below 0.1 µM. Also, in series [2], the “EC1.5x for Smn protein expression” value was “**** (an EC1.5x≤0.3 μM is indicated by four stars (****))”; the “maximum fold (Fold) increase” value was “**** (a fold increase between >1.5 and ≤1.65 is indicated by four stars (****))”.
`Cc1cn2nc(-c3cc(=O)n4cc(N5CCC(N(CCO)CCO)CC5)cc(C)c4n3)cc2c(C)n1` [Compound 597, 7-{4-[bis(2-hydroxyethyl)amino]piperidin-1-yl}-2-(4,6-dimethylpyrazolo[1,5-a]pyrazin-2-yl)-9-methyl-4H-pyrido[1,2-a]pyrimidin-4-one] displayed a melting point of 218 to 227 °C. In series [1], the EC (1.5-fold increase) was 0.1 to 0.3 µM. For the same compound, in series [2], the “EC1.5x for Smn protein expression” value is “*** (an EC1.5× between >0.3 μM and ≤1 μM is indicated by three stars (***))”; the “maximum fold (Fold) increase” value is “**** (a fold increase between >1.5 and ≤1.65 is indicated by four stars (****))”.
With `Cc1nc2ccc(-c3cc(=O)n4nc(C5CCN(CCO)CC5)ccc4n3)cc2o1` [Compound 598, 7-[1-(2-hydroxyethyl)piperidin-4-yl]-2-(2-methyl-1,3-benzoxazol-6-yl)-4H-pyrimido[1,2-b]pyridazin-4-one], the melting point lay within 205 to 207 °C. Moreover, in series [1], the EC (1.5-fold increase) is 0.1 to 0.3 µM. Besides, in series [2], the “EC1.5x for Smn protein expression” value was “*** (an EC1.5× between >0.3 μM and ≤1 μM is indicated by three stars (***))”; the “maximum fold (Fold) increase” value is listed as “***** (a fold increase >1.65 is indicated by five stars (*****))”.
